Assay results from patent US20250215012A1, “IKZF2 DEGRADERS AND USES THEREOF” (REGENTS OF THE UNIVERSITY OF MICHIGAN, priority 2022, published 2025).

Biological target: IKZF2 (Homo sapiens (Human), UniProt Q96SW2+Q9UKS7)
Test: IKZF2 HiBiT Assay (Jurkat-IKZF2-HiBiT cell line)
Type: cell-based
Conditions: Jurkat-IKZF2-HiBiT cells, 24 hours; for DC50: read-out: HiBit assay degradation analysis DC50; for Dmax: read-out: HiBit assay degradation analysis Dmax
Method in brief: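 IKZF2 degradation was assessed as HiBiT luminescence in Jurkat-IKZF2-HiBiT cells, using lytic detection after 24 h of compound treatment at 37 °C, 5% CO2.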

Chain of IKZF2 (Q9UKS7 whole entry): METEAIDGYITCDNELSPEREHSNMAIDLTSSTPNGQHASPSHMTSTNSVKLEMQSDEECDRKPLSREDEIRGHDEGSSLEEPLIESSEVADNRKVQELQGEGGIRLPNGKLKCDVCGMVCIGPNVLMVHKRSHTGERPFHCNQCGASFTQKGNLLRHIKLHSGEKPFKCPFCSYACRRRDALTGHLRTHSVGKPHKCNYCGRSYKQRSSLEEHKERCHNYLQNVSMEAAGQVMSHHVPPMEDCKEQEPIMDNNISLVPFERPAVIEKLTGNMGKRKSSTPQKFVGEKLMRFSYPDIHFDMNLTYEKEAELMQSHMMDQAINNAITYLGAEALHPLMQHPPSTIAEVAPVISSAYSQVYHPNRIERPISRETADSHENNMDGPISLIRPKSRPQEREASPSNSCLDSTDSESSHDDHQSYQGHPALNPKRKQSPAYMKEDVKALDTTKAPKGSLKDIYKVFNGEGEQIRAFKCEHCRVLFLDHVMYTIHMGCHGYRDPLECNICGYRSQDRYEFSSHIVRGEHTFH
Chain of IKZF2 (Q96SW2 whole entry): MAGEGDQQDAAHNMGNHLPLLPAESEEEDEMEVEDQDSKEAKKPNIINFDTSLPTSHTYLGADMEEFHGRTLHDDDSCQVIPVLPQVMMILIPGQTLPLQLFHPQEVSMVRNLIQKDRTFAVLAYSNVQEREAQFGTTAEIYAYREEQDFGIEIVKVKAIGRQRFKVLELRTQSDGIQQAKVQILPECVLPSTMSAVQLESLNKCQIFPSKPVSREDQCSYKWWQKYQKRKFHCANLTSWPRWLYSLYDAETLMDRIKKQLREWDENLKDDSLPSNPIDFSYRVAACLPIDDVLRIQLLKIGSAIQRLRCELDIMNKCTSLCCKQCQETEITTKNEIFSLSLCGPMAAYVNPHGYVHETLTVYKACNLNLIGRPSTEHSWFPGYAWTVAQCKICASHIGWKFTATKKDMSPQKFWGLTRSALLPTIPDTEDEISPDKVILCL
Chain of IKZF2 (Q16531 whole entry partner): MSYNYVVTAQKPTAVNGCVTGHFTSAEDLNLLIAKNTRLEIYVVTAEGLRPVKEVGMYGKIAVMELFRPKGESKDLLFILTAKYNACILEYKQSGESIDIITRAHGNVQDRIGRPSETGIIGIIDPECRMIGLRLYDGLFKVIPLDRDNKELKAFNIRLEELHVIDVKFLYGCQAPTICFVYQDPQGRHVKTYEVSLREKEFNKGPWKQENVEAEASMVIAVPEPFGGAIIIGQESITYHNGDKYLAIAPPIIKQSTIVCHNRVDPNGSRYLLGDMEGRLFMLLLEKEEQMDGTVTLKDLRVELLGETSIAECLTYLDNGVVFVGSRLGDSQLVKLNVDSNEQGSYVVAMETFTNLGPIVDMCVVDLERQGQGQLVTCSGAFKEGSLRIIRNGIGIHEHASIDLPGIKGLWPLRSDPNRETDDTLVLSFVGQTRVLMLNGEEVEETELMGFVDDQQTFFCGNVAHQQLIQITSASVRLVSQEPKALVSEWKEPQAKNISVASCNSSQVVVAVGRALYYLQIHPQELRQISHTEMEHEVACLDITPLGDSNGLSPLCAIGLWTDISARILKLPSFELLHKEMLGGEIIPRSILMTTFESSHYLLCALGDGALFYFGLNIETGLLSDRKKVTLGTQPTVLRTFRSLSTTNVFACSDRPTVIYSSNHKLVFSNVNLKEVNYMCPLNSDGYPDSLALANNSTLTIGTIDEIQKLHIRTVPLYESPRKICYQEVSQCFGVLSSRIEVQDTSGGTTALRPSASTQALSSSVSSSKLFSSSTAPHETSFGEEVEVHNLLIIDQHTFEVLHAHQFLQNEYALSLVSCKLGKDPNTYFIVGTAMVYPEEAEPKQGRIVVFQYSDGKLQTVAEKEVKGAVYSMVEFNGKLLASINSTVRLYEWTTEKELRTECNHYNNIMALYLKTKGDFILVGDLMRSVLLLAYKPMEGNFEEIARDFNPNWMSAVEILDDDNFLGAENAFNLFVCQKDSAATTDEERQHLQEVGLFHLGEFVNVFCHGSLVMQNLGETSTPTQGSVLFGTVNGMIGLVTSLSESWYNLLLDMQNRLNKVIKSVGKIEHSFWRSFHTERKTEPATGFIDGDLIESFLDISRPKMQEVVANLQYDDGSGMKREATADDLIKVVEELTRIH

SMILES | DC50 | Dmax
O=C1CCC(N2Cc3c(ccc4c3COC43CCN(Cc4cccc(-c5cc[nH]n5)c4)CC3)C2=O)C(=O)N1 (stereo not drawn) [Compound A260, 3-(1′-(3-(1H-pyrazol-3-yl)benzyl)-6-oxo-6,8-dihydrospiro[furo[3,4-e]isoindoline-3,4′-piperidin]-7(1H)-yl)piperidine-2,6-dione] | > 0.5 µM | 40 to 60%
O=C1CCC(N2Cc3c(ccc4c3OCC43CCN(Cc4cccc(NS(=O)(=O)c5ccccc5)c4)CC3)C2=O)C(=O)N1 (stereo not drawn) [Compound A261, N-(3-((7-(2,6-dioxopiperidin-3-yl)-6-oxo-7,8-dihydro-2H,6H-spiro[furo[2,3-e]isoindole-3,4′-piperidin]-1′-yl)methyl)phenyl)benzenesulfonamide] | > 0.5 µM | < 40%
COc1ccc(C(=O)Nc2cccc(CN3CCC4(CC3)OCc3c4ccc4c3CN(C3CCC(=O)NC3=O)C4=O)c2)cc1 (stereo not drawn) [Compound A262] | < 0.05 µM | 60 to 80%
Cc1ccc(C(=O)Nc2cccc(CN3CCC4(CC3)OCc3c4ccc4c3CN(C3CCC(=O)NC3=O)C4=O)c2)cc1 (stereo not drawn) [Compound A263, N-(3-((7-(2,6-dioxopiperidin-3-yl)-6-oxo-1,6,7,8-tetrahydrospiro[furo[3,4-e]isoindole-3,4′-piperidin]-1′-yl)methyl)phenyl)-4-methylbenzamide] | < 0.05 µM | 60 to 80%
O=C1CC[C@H](N2Cc3c(ccc4c3OCC43CCN(Cc4cccc(-c5cnn(C6COC6)c5)c4)CC3)C2=O)C(=O)N1 [Compound A265, (S)-3-(1′-(3-(1-(oxetan-3-yl)-1H-pyrazol-4-yl)benzyl)-6-oxo-6,8-dihydro-2H,7H-spiro[furo[2,3-e]isoindole-3,4′-piperidin]-7-yl)piperidine-2,6-dione] | < 0.05 µM | 60 to 80%
Cn1ccc(-c2cccc(CN3CCC4(CC3)COc3c4ccc4c3CN([C@H]3CCC(=O)NC3=O)C4=O)c2)n1 [Compound A267, (S)-3-(1′-(3-(1-methyl-1H-pyrazol-3-yl)benzyl)-6-oxo-6,8-dihydro-2H,7H-spiro[furo[2,3-e]isoindole-3,4′-piperidin]-7-yl)piperidine-2,6-dione] | < 0.05 µM | 60 to 80%
O=C1CC[C@H](N2Cc3c(ccc4c3OCC43CCN(Cc4cccc(-c5cnn(C6CC6)c5)c4)CC3)C2=O)C(=O)N1 [Compound A268, (S)-3-(1′-(3-(1-cyclopropyl-1H-pyrazol-4-yl)benzyl)-6-oxo-6,8-dihydro-2H,7H-spiro[furo[2,3-e]isoindole-3,4′-piperidin]-7-yl)piperidine-2,6-dione] | < 0.05 µM | 60 to 80%
O=C1CC[C@H](N2Cc3c(ccc4c3OCC43CCN(Cc4cccc(-c5cnn([C@H]6CCOC6)c5)c4)CC3)C2=O)C(=O)N1 [Compound A269, (S)-3-(6-oxo-1′-(3-(1-((S)-tetrahydrofuran-3-yl)-1H-pyrazol-4-yl)benzyl)-6,8-dihydro-2H,7H-spiro[furo[2,3-e]isoindole-3,4′-piperidin]-7-yl)piperidine-2,6-dione] | 0.05 to 0.2 µM | 60 to 80%
O=C1CC[C@H](N2Cc3c(ccc4c3OCC43CCN(Cc4cccc(-c5cnn([C@@H]6CCOC6)c5)c4)CC3)C2=O)C(=O)N1 [Compound A270, (S)-3-(6-oxo-1′-(3-(1-((R)-tetrahydrofuran-3-yl)-1H-pyrazol-4-yl)benzyl)-6,8-dihydro-2H,7H-spiro[furo[2,3-e]isoindole-3,4′-piperidin]-7-yl)piperidine-2,6-dione] | < 0.05 µM | 60 to 80%
O=C1CC[C@H](N2Cc3c(ccc4c3OCC43CCN(Cc4cccc(-c5cnn(CC6COC6)c5)c4)CC3)C2=O)C(=O)N1 [Compound A271, (S)-3-(1′-(3-(1-(oxetan-3-ylmethyl)-1H-pyrazol-4-yl)benzyl)-6-oxo-6,8-dihydro-2H,7H-spiro[furo[2,3-e]isoindole-3,4′-piperidin]-7-yl)piperidine-2,6-dione] | > 0.5 µM | < 40%
O=C1CC[C@H](N2Cc3c(ccc4c3OCC43CCN(Cc4cccc(-c5cnn(C[C@@H]6COCCO6)c5)c4)CC3)C2=O)C(=O)N1 [Compound A272, (S)-3-(1′-(3-(1-(((R)-1,4-dioxan-2-yl)methyl)-1H-pyrazol-4-yl)benzyl)-6-oxo-6,8-dihydro-2H,7H-spiro[furo[2,3-e]isoindole-3,4′-piperidin]-7-yl)piperidine-2,6-dione] | 0.05 to 0.2 µM | 60 to 80%
O=C1CC[C@H](N2Cc3c(ccc4c3OCC43CCN(Cc4cccc(-c5cnn(C[C@H]6CCO6)c5)c4)CC3)C2=O)C(=O)N1 [Compound A273, (S)-3-(1′-(3-(1-(((R)-oxetan-2-yl)methyl)-1H-pyrazol-4-yl)benzyl)-6-oxo-6,8-dihydro-2H,7H-spiro[furo[2,3-e]isoindole-3,4′-piperidin]-7-yl)piperidine-2,6-dione] | 0.05 to 0.2 µM | 60 to 80%
O=C1CC[C@H](N2Cc3c(ccc4c3OCC43CCN(Cc4cccc(-c5cnn(C[C@@H]6CCO6)c5)c4)CC3)C2=O)C(=O)N1 [Compound A274, (S)-3-(1′-(3-(1-(((S)-oxetan-2-yl)methyl)-1H-pyrazol-4-yl)benzyl)-6-oxo-6,8-dihydro-2H,7H-spiro[furo[2,3-e]isoindole-3,4′-piperidin]-7-yl)piperidine-2,6-dione] | 0.05 to 0.2 µM | 60 to 80%
O=C1CC[C@H](N2Cc3c(ccc4c3OCC43CCN(C4Cc5ccccc5C4)CC3)C2=O)C(=O)N1 [Compound A275, (S)-3-(1′-(2,3-dihydro-1H-inden-2-yl)-6-oxo-6,8-dihydro-2H,7H-spiro[furo[2,3-e]isoindole-3,4′-piperidin]-7-yl)piperidine-2,6-dione] | > 0.5 µM | 40 to 60%
O=C1CC[C@H](N2Cc3c(ccc4c3OCC43CCN(Cc4cc(F)cc(-c5cnn(C6COC6)c5)c4)CC3)C2=O)C(=O)N1 [Compound A276, (S)-3-(1′-(3-fluoro-5-(1-(oxetan-3-yl)-1H-pyrazol-4-yl)benzyl)-6-oxo-6,8-dihydro-2H,7H-spiro[furo[2,3-e]isoindole-3,4′-piperidin]-7-yl)piperidine-2,6-dione] | < 0.05 µM | 40 to 60%
COc1cc(CN2CCC3(CC2)COc2c3ccc3c2CN([C@H]2CCC(=O)NC2=O)C3=O)cc(-c2cnn(C3COC3)c2)c1 [Compound A277] | < 0.05 µM | > 80%
O=C1CC[C@H](N2Cc3c(ccc4c3OCC43CCN(Cc4cccc(NC(=O)C(F)(F)F)c4)CC3)C2=O)C(=O)N1 [Compound A278, (S)-N-(3-((7-(2,6-dioxopiperidin-3-yl)-6-oxo-7,8-dihydro-2H,6H-spiro[furo[2,3-e]isoindole-3,4′-piperidin]-1′-yl)methyl)phenyl)-2,2,2-trifluoroacetamide] | < 0.05 µM | > 80%
Cc1cc(CN2CCC3(CC2)COc2c3ccc3c2CN([C@H]2CCC(=O)NC2=O)C3=O)cc(-c2cnn(C3COC3)c2)c1 [Compound A279, (S)-3-(1′-(3-methyl-5-(1-(oxetan-3-yl)-1H-pyrazol-4-yl)benzyl)-6-oxo-6,8-dihydro-2H,7H-spiro[furo[2,3-e]isoindole-3,4′-piperidin]-7-yl)piperidine-2,6-dione] | < 0.05 µM | 60 to 80%
